Measured values taken from US9657018B2, “Antagonists acting at multiple prostaglandin receptors for the treatment of inflammation” (Allergan, Inc., priority 2014, dated 2017).

Experiments:
Type in all cases: cell-based
[1] = target: T1, human prostanoid FP receptor (Homo sapiens, UniProt P43088); test: FLIPR Ca2+ signaling antagonist assay, FP receptor stable cell line; details: human recombinant FP in HEK-293 EBNA cells; standard agonist 17-phenyl-PGF2a; NA = no antagonism or Kb>=10,000 nM
T1 construct: expressed in transfected cells
Experimental: (§1) The above compounds were tested for PG antagonist activity as follows using human recombinant prostanoid receptor (DP1, EP1-4, FP, IP and TP) stable cell lines:
(§2) In order to measure the response of Gs and Gi coupled prostanoid receptors as a Ca^2+ signal, chimeric G protein cDNAs were used. Stable cell lines over-expressing human prostanoid DP1, EP1-4, FP, IP, and TP receptors were established as follows:
(§3) Briefly, human prostanoid DP1, EP2, and EP4 receptor cDNAs were co-transfected with chimeric Gqs cDNA containing a haemagglutanin (HA) epitope; human prostanoid EP3 receptors were co-transfected with chimeric Gqi-HA; human EP1, FP, IP, and TP receptor cDNAs were expressed with no exogenous G-proteins. Gqs and Gqi chimeric cDNAs (Molecular Devices, Sunnyvale, Calif., U.S.A.), as well as cDNAs of prostanoid receptors, were cloned into a pCEP4 vector with a hygromycin B selection marker. Transfection into HEK-293 EBNA (Epstein-Barr virus nuclear antigen) cells was achieved by the FuGENE 6 transfection Reagent (Roche Applied Science, Indianapolis, Ind., USA). Stable transfectants were selected according to hygromycin resistance. Because Gqs and Gqi contained an HA epitope, G-protein expression was detected by Western blotting analysis using anti-mouse HA monoclonal antibody and horseradish peroxidase (HRP)-conjugated secondary antibody, while functional expression of prostanoid receptors was detected by FLIPR screening (Matias et al., 2004). These stable cell lines were validated using previously published antagonists at 10 μM against serial dilutions of standard agonists by FLIPR functional assays for Ca^2+ Signaling (as described below).
(§4) Ca^2+ signaling studies were performed using a FLIPR TETRA system (Molecular Devices, Sunnyvale, Calif., USA) in the 384-format. This is a high-throughput instrument for cell-based assays to monitor Ca^2+ signaling associated with GPCRs and ion channels. Cells were seeded at a density of 5×10^4 cells/well in BioCoat poly-D-lysine coated, black wall, clear bottom 384-well plates (BD Biosciences, Franklin lakes, NJ, USA) and allowed to attach overnight in an incubator at 37° C. The cells were then washed twice with HBSS-HEPES buffer (Hanks' balanced salt solution without bicarbonate and phenol red, 20 mM HEPES, pH 7.4) using an ELx405 Select CW Microplate Washer (BioTek, Winooski, Vt., USA). After 60 min of dye-loading in the dark using the Ca^2+-sensitive dye Fluo-4AM (Invitrogen, Carlsbad, Calif., USA), at a final concentration of 2×10^−6M, the plates were washed 4 times with HBSS-HEPES buffer to remove excess dye and leaving 50 μl of buffer in each well. The plates were then placed in the FLIPR TETRA instrument and allowed to equilibrate at 37° C. AGN-211377 was added in a 25 μl volume to each well to give final concentrations of 0.1 μl. M, 0.4M, 1 μM, 3 μl. M, 10 μl. M, and 30 μl. M; or 0.067 μM, 0.4M, 0.67 μM, and 1 μM for cells over-expressing TP receptors. After 4.5 minutes, a 7-point serial dilution of the standard agonist for the corresponding receptor, in a 25 μl volume was injected at the final concentrations from 10^−11M to 10^−5M in 10-fold serial dilution increments for cells expressing human recombinant DP1, EP1, EP2, EP3, EP4, FP, and IP receptors. The dose range for the standard agonist for human recombinant TP receptors was from 10^−12M to 10^−6M. HBSS-HEPES buffer was used as the negative control for the standard agonists. Cells were excited with LED (light emitting diode) excitation at 470-495 nm and emission was measured through an emission filter at 515-575 nm. Assay plates were read for 3.5 minutes using the FLIPR^TETRA. The peak increase in fluorescence intensity was recorded for each well. On each plate, negative controls, dose response of positive controls, and co-treatments of antagonist-agonist for each dose were in triplicates. Standard agonists were as follows: DP=BW 245C, EP1-EP4=PGE2, FP=17-phenyl-PGF2a, IP=Cicaprost, and TP=U-46619. […]

[2] = target: T2, human prostanoid EP1 receptor (Homo sapiens, UniProt P34995); test: FLIPR Ca2+ signaling antagonist assay, EP1 receptor stable cell line; details: human recombinant EP1 in HEK-293 EBNA cells; standard agonist PGE2; NA = no antagonism or Kb>=10,000 nM
T2 construct: expressed in transfected cells
T2 sequence (P34995 1-402): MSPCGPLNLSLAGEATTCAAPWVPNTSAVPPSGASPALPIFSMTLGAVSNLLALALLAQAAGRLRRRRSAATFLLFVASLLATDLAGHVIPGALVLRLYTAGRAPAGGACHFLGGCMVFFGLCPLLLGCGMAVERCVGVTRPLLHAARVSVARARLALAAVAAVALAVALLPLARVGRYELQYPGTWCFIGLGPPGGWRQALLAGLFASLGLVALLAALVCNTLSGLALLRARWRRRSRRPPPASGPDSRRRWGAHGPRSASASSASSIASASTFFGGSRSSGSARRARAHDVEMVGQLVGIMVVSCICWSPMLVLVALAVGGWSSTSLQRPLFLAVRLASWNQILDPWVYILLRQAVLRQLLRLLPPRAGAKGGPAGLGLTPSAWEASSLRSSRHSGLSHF
Experimental: as §1, §2, §3, §4

[3] = target: T3, human prostanoid EP2 receptor (Homo sapiens, UniProt P43116); test: FLIPR Ca2+ signaling antagonist assay, EP2 receptor stable cell line; details: human recombinant EP2 + chimeric Gqs in HEK-293 EBNA cells; standard agonist PGE2; NA = no antagonism or Kb>=10,000 nM
T3 construct: expressed in transfected cells
Experimental: as §1, §2, §3, §4

[4] = target: T4, human prostanoid EP4 receptor (Homo sapiens, UniProt P35408); test: FLIPR Ca2+ signaling antagonist assay, EP4 receptor stable cell line; details: human recombinant EP4 + chimeric Gqs in HEK-293 EBNA cells; standard agonist PGE2; NA = no antagonism or Kb>=10,000 nM
T4 construct: expressed in transfected cells
Experimental: as §1, §2, §3, §4

[5] = target: T5, human prostanoid IP receptor (Homo sapiens, UniProt P43119); test: FLIPR Ca2+ signaling antagonist assay, IP receptor stable cell line; details: human recombinant IP in HEK-293 EBNA cells; standard agonist Cicaprost; NA = no antagonism or Kb>=10,000 nM
T5 construct: expressed in transfected cells
Experimental: as §1, §2, §3, §4

T5 sequence (P43119 whole entry): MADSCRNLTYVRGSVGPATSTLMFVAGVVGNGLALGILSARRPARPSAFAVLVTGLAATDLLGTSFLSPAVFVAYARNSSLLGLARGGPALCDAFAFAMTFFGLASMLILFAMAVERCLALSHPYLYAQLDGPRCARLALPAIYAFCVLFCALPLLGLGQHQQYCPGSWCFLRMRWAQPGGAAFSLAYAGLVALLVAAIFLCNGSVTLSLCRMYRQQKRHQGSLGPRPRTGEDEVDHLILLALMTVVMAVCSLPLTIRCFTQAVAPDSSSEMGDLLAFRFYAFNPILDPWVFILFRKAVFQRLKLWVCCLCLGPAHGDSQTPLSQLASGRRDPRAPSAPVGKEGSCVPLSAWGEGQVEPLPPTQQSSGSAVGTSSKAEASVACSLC
T4 sequence (P35408 whole entry): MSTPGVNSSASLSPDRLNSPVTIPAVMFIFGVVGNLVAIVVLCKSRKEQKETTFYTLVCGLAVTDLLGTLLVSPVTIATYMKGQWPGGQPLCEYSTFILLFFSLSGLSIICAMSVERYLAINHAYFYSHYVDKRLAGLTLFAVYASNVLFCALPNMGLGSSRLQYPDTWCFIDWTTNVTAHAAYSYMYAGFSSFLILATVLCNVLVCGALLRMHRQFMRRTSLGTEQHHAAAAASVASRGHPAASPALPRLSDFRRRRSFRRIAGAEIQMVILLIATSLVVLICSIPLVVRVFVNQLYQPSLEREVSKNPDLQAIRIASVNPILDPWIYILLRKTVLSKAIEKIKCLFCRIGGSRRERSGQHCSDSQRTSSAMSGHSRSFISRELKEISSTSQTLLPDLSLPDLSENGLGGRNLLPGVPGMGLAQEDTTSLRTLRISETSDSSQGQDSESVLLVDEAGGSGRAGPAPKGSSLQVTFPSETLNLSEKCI
T3 sequence (P43116 whole entry): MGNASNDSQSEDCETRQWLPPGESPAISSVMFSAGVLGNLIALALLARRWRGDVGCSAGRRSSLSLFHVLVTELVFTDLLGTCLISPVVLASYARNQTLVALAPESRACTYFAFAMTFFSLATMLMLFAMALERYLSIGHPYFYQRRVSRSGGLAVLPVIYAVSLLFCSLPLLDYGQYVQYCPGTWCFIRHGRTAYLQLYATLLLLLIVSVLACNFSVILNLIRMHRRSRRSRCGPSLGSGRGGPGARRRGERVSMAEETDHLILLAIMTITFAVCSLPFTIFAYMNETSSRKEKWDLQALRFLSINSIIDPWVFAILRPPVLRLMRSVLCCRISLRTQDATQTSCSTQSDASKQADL
T1 sequence (P43088 whole entry): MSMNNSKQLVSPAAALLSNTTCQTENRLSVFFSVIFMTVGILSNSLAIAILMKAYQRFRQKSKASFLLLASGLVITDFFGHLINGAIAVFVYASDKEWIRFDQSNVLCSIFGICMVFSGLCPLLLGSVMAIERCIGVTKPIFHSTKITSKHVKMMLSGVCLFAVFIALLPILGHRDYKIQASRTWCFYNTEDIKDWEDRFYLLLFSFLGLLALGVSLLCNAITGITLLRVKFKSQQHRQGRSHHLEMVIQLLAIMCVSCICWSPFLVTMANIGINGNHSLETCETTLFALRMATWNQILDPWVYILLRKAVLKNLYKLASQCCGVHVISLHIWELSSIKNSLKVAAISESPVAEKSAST

Row | Kb [1] [nM] | Kb [2] [nM] | Kb [3] [nM] | Kb [4] [nM] | Kb [5] [nM] | SMILES
1 | 35 | > 10000 | > 10000 | 60 | 9300 | CC(C)Cn1ncc2cc(Cl)cc(Cn3nc(N)c4cc(C(=O)O)ccc43)c21 [Compound 68, 3-Amino-1-[(5-chloro-1-isobutyl-indazol-7-yl)methyl]indazole-5-carboxylic acid]
2 | 17 | 2300 | 7000 | 1 | 900 | CNc1nn(Cc2cc(Cl)cc3cnn(CC(C)C)c23)c2ccc(C(=O)O)cc12 [Compound 70, 1-[(5-Chloro-1-isobutyl-indazol-7-yl)methyl]-3-(methylamino)indazole-5-carboxylic acid]
